≈ marks a conversion by molar mass, not a printed value. Read-outs that look alike come from different tables or passages of the source.
Assays:
[1] = test system: HEp-2 epithelial tumor cells; assay: MTT cell viability / anti-tumor activity; conditions: Homo sapiens, read-out: Cell viability on Hep2 cells (%)
Procedure: The cytotoxicity of the halogenoaminopyrazole derivatives 4a–f and 5a–e was tested on L929 mouse fibroblast cells, and their anti-tumor activity was evaluated on the human carcinoma epithelial cell line HEp-2. The experiments were performed in a concentration range of 3.1–50 μg/mL.
The MTT test was used, 3-(4,5-dimethylthiazol-2-yl)-2,5-diphenyl tetrazolium bromide), which is reduced to insoluble purple-blue formazan crystals precipitated by living cells. Cell viability assessed using the MTT assay reflects the activity of mitochondrial enzymes in treated cells compared to the control culture of untreated cells.
To assess the biocompatibility of the substances, a stable mouse fibroblast cell line, NCTC (clone 929), was grown in minimal essential medium (MEM) with 10% fetal bovine serum (FBS) and 2 mM L-glutamine, along with 100 U/mL penicillin, 100 µg/mL streptomycin, and 500 µg/mL neomycin. The concentration of the compounds used was 0.06 g/2 mL DMSO.
In cytotoxicity experiments, compound solutions were utilized at concentrations of 3.1 μg/mL, 6.25 μg/mL, 12.5 μg/mL, 25 μg/mL, and 50 μg/mL. The NCTC cell suspension was placed into 96-well culture plates with a concentration of 4 × 10^4 cells/mL and incubated at 37 °C for 24 h in a 5% CO2 humidified atmosphere. The compounds under study were placed in sets of three at varying concentrations ranging from 3.1 μg/mL to 50 μg/mL in every well, and the plates were then kept under standard conditions for 48 h. Cell viability was determined through the utilization of the MTT assay. Next, the MTT solution was removed, then isopropanol was added to solubilize the formazan crystals. The colored solution was then measured for absorbance at 570 nm using a Berthold Technologies, LB 940 microplate reader (Bad Wildbad, Germany). The outcomes were determined based on Formula (1) while considering that the recorded optical density is directly related to the number of viable cells in the cell culture being examined [35, 36]. % cell viability = (OD sample/OD control) × 100%(1)
For each tested compound, a graph representing percentage cell viability versus concentrations (in the range 3.1–50 µg/mL) was obtained. Then, the IC50 value was calculated by using ED50 plus V1.0 software.

[2] = test system: Staphylococcus aureus ATCC25923; assay: MIC by serial microdilution in liquid medium; type: cell-based; conditions: 24 h, 37 °C; for MIC: Staphylococcus aureus, ATCC25923, read-out: Minimum inhibitory concentration, Staphylococcus aureus ATCC25923
Procedure: (§1) The minimum inhibitory concentrations (MIC) were determined by the serial microdilution method in a liquid medium (Tryptone Soy Broth), on 96-well plates. Serial binary dilutions of the compound stock solution (10 mg/mL in DMSO) were carried out in 90 µL of culture medium and 10 µL of 10^6 CFU/mL (Colony Forming Units) microbial suspension. Each test included a positive control (wells with culture medium and microbial suspension) and a negative control for medium sterility. After incubation at 37 °C for 24 h the plates were visually examined, and optical density was measured at 620 nm. […] The MIC value (µg/mL) for the chemical compound was determined by the concentration in the final well without bacterial growth. All experiments were performed in triplicate.

[3] = test system: Enterococcus faecalis ATCC29212; assay: MIC by serial microdilution in liquid medium; type: cell-based; conditions: Enterococcus faecalis, ATCC29212; 24 h, 37 °C; read-out: Minimum inhibitory concentration, Enterococcus faecalis ATCC29212
Procedure: as §1

[4] = test system: Pseudomonas aeruginosa ATCC27853; assay: MIC by serial microdilution in liquid medium; type: cell-based; conditions: Pseudomonas aeruginosa, ATCC27853; 24 h, 37 °C; read-out: Minimum inhibitory concentration, Pseudomonas aeruginosa ATCC27853
Procedure: as §1

[5] = test system: Escherichia coli ATCC25922; assay: MIC by serial microdilution in liquid medium; type: cell-based; conditions: 24 h, 37 °C; for MIC: Escherichia coli, ATCC25922, read-out: Minimum inhibitory concentration, Escherichia coli ATCC25922
Procedure: as §1

[6] = test system: Staphylococcus aureus ATCC25923; assay: Antibiofilm assay (crystal violet), MBIC; type: cell-based; conditions: 24 h, 37 °C; for minimal effective concentration: Staphylococcus aureus, ATCC25923, read-out: Minimum biofilm inhibition concentration (MBIC), Staphylococcus aureus ATCC25923
Procedure: (§2) Microorganisms were grown in 96-well plates filled with nutrient broth along with test substances, followed by incubation at 37 °C for 24 h. Plates were cleaned and rinsed thrice using SPW solution (sterile physiological water). After that, the attached cells were treated with 110 μL of methanol for 5 min, and then the methanol was removed by turning it upside down. […] Once stained, the solution was removed, and the plates were washed with running tap water. […] The antimicrobial/antibiofilm activity of the compounds was evaluated against two antibiotics, commercial formulations of metronidazole and nitrofurantoin.

[7] = test system: Enterococcus faecalis ATCC29212; assay: Antibiofilm assay (crystal violet), MBIC; type: cell-based; conditions: Enterococcus faecalis, ATCC29212, 24 h, 37 °C, read-out: Minimum biofilm inhibition concentration (MBIC), Enterococcus faecalis ATCC29212
Procedure: as §2

[8] = test system: Pseudomonas aeruginosa ATCC27853; assay: Antibiofilm assay (crystal violet), MBIC; type: cell-based; conditions: Pseudomonas aeruginosa, ATCC27853, 24 h, 37 °C, read-out: Minimum biofilm inhibition concentration (MBIC), Pseudomonas aeruginosa ATCC27853
Procedure: as §2

[9] = test system: Escherichia coli ATCC25922; assay: Antibiofilm assay (crystal violet), MBIC; type: cell-based; conditions: Escherichia coli, ATCC25922, 24 h, 37 °C, read-out: Minimum biofilm inhibition concentration (MBIC), Escherichia coli ATCC25922
Procedure: as §2

[10] = test system: Staphylococcus aureus ATCC25923; assay: Qualitative evaluation of antimicrobial activity (inhibition zone, spot on agar); type: cell-based; parameters: key: (+) inhibited bacterial growth; (-) did not inhibit bacterial growth; conditions: 0.06 g/2 mL DMSO, 5 µL spot
Procedure: (§3) For testing the antimicrobial/antibiofilm activity, the concentration of the studied compounds was identical to 0.06 g/2 mL DMSO. 0.5 Standard McFarland suspension was used, which was inoculated onto Mueller Hinton agar plates, (Remel, Lenexa, KS, USA), 5 µL of each compound was spotted and incubated overnight at 37 °C. Antimicrobial activity was observed as zones of inhibition formed around the spot.

[11] = test system: Enterococcus faecalis ATCC29212; assay: as above; type: cell-based; parameters: key: (+) inhibited bacterial growth; (-) did not inhibit bacterial growth; conditions: 0.06 g/2 mL DMSO, 5 µL spot
Procedure: as §3

[12] = test system: Pseudomonas aeruginosa ATCC27853; assay: as above; type: cell-based; parameters: key: (+) inhibited bacterial growth; (-) did not inhibit bacterial growth; conditions: 0.06 g/2 mL DMSO, 5 µL spot
Procedure: as §3

[13] = test system: Escherichia coli ATCC25922; assay: as above; type: cell-based; parameters: key: (+) inhibited bacterial growth; (-) did not inhibit bacterial growth; conditions: 0.06 g/2 mL DMSO, 5 µL spot
Procedure: as §3

[14] = MTT cell viability / cytotoxicity on normal fibroblasts; type: cell-based, mouse; conditions: mouse, NCTC clone 929 (L929) mouse fibroblast cells
Source text: Merck chemicals were utilized.
Untreated cells were used as control, considered 100% viable cells.

Row | Compound | viability at 3.1 µg/mL ([1]; HEp-2, 24 h) | viability at 6.25 µg/mL ([1]; HEp-2, 24 h) | viability at 12.5 µg/mL ([1]; HEp-2, 24 h) | viability at 25 µg/mL ([1]; HEp-2, 24 h) | viability at 50 µg/mL ([1]; HEp-2, 24 h) | viability at 3.1 µg/mL ([1]; HEp-2, 48 h) | viability at 6.25 µg/mL ([1]; HEp-2, 48 h) | viability at 12.5 µg/mL ([1]; HEp-2, 48 h) | viability at 25 µg/mL ([1]; HEp-2, 48 h) | viability at 50 µg/mL ([1]; HEp-2, 48 h) | MIC [2] | MIC [3] | MIC [4] | MIC [5] | melting point | minimal effective concentration [6] | Qualitative antimicrobial activity, Staphylococcus aureus ATCC25923 [10] | Qualitative antimicrobial activity, Enterococcus faecalis ATCC29212 [11] | Qualitative antimicrobial activity, Pseudomonas aeruginosa ATCC27853 [12] | Qualitative antimicrobial activity, Escherichia coli ATCC25922 [13] | also measured
1 | Cc1nn(CNc2ccc(Br)cc2)c(C)c1[N+](=O)[O-] [4c, N-[(3,5-dimetyl-4-nitro-1H-pyrazol-1-yl)-methyl]-4-bromoaniline] | 101 ± 2.04% | 103 ± 2.31% | 100 ± 3.15% | 98.7 ± 1.83% | 92.64 ± 0.9% | 116 ± 2.55% | 104.2 ± 0.88% | 99.6 ± 2.32% | 82.6 ± 3.28% | 70.2 ± 1.91% | 930 ± 0.04 µg/mL (≈ 2860 µM) | 930 ± 0.03 µg/mL (≈ 2860 µM) | 930 ± 1.08 µg/mL (≈ 2860 µM) | 930 ± 1.05 µg/mL (≈ 2860 µM) | 118 to 120 °C | 930 ± 0.06 µg/mL | - | - | - | - | minimal effective concentration [7]: 930 ± 1.09 µg/mL; minimal effective concentration [8]: 930 ± 0.52 µg/mL; minimal effective concentration [9]: 930 ± 0.11 µg/mL; viability at 24 h, 3.1 µg/mL [14]: 99.2 ± 0.97%; viability at 48 h, 3.1 µg/mL [14]: 99.67 ± 0.71%; viability at 24 h, 6.25 µg/mL [14]: 97.1 ± 3.04%; viability at 48 h, 6.25 µg/mL [14]: 98.8 ± 1.92%; viability at 24 h, 12.5 µg/mL [14]: 95.6 ± 0.62%; viability at 48 h, 12.5 µg/mL [14]: 97.2 ± 3.5%; viability at 24 h, 25 µg/mL [14]: 95.5 ± 2.14%; viability at 48 h, 25 µg/mL [14]: 95.6 ± 2.93%; viability at 24 h, 50 µg/mL [14]: 91.1 ± 3.04%; viability at 48 h, 50 µg/mL [14]: 81.5 ± 3.26%
2 | Cc1nn(CNc2cccc(Cl)c2)c(C)c1[N+](=O)[O-] [4e, N-[(3,5-dimetyl-4-nitro-1H-pyrazol-1-yl)-methyl]-3-chloroaniline] | 106.5 ± 0.73% | 103.7 ± 0.28% | 99.7 ± 0.32% | 89.15 ± 0.88% | 56.46 ± 0.42% | 98.1 ± 2.88% | 97.1 ± 1.78% | 94.8 ± 2.84% | 81.7 ± 2.38% | 54.9 ± 2.76% | 460 µg/mL (≈ 1640 µM) | 930 ± 0.02 µg/mL (≈ 3310 µM) | 930 ± 0.53 µg/mL (≈ 3310 µM) | 460 µg/mL (≈ 1640 µM) | 110 to 111 °C | 460 µg/mL | + | - | + | + | Minimum inhibitory concentration, Staphylococcus aureus ATCC25923 [2]: 460 ± 0.03 µg/mL (≈ 1640 µM); Minimum inhibitory concentration, Escherichia coli ATCC25922 [5]: 460 ± 0.52 µg/mL (≈ 1640 µM); Minimum biofilm inhibition concentration (MBIC), Staphylococcus aureus ATCC25923 [6]: 460 ± 0.04 µg/mL; viability at 24 h, 3.1 µg/mL [14]: 93.1 ± 2.76%; viability at 48 h, 3.1 µg/mL [14]: 89.5 ± 2.24%; viability at 24 h, 6.25 µg/mL [14]: 94.3 ± 2.92%; viability at 48 h, 6.25 µg/mL [14]: 98.3 ± 2.03%; viability at 24 h, 12.5 µg/mL [14]: 97.8 ± 0.99%; viability at 48 h, 12.5 µg/mL [14]: 93.2 ± 2.94%; viability at 24 h, 25 µg/mL [14]: 95.6 ± 2.19%; viability at 48 h, 25 µg/mL [14]: 92.2 ± 0.89%; viability at 24 h, 50 µg/mL [14]: 63.5 ± 3.18%; viability at 48 h, 50 µg/mL [14]: 63.2 ± 2.56%

Reference: article PMC11672400, “Synthesis, Spectroscopic Characterization, Structural Analysis, and Evaluation of Anti-Tumor, Antimicrobial, and Antibiofilm Activities of Halogenoaminopyrazoles Derivatives” (Antibiotics, 2024)
